Patent US20230383261A1, “HEPATOCYTE-LIKE CELLS” (Sana Biotechnology, Inc., priority 2020, published 2023)

Legend:
Format in all cases: cell-based, human
hPSC-Heps spheroids = conditions: for ammonia detoxification: media containing ammonia; for ammonia detoxification with excess arginine: media containing ammonia and arginine
Description: Human pluripotent stem cell-derived hepatocytes (hPSC-Heps) were obtained after 21 days of differentiation using a 2D adherent protocol. At day 21 the hPSC-Heps were aggregated into spheroids, and then encapsulated within alginate 48 hours later. The spheroids including the alginate encapsulated spheroids were cultured for 14 days in either vitamin K1, vitamin K2 MK4, […], vitamin E, or a combination of all. The spheroids were cultured at a concentration of about 1×10^6 encapsulated cells/ml for the culture period.

[1] = test system: CYP3A4 activity in hepatocyte-like cells; assay: CYP3A4 enzyme activity assay of hepatocyte maturation, media with or without HGF; conditions: absence of HGF in the culture media after the first 14 days of 2D differentiation, vs media containing HGF
Description: Mature hepatocyte-like cells were differentiated from human pluripotent stem cells using a 2D differentiation protocol for the first 14 days of differentiation, and then the cells were cultured in media lacking recombinant HGF. At day 14, hepatocytes at the hepatic endoderm stage were dissociated and seeded into these plates in fully supplemented HepatoZYME-SFM media. 24 hours later the cells were cultured and maintained in media lacking recombinant HGF. Hepatocyte maturation was determined using a CYP3A4 enzyme activity assay.

[2] = test system: hepatocyte-specific genes and urea cycle enzyme genes; assay: gene expression in differentiation methods A, B and C with forskolin; conditions: forskolin at days 21-35 or 30-35 (3D) or days 28-35 (2D)
Description: This example provides urea cycle gene expression of hepatocyte-like cells differentiated using three different methods, such as a 3D differentiation method with forskolin treatment at days 21-35 (method A), a 3D differentiation method with forskolin treatment at days 30-35 (method B), and a 2D differentiation method with forskolin treatment at days 28-35 (method C). The expression of the following genes were measured: alpha fetoprotein (AFP), albumin (ALB), arginase 1 (ARG1), asialoglycoprotein receptor 1 (ASGR1), agininosuccinate lyase (ASL), argininosuccinate synthase 1 (ASS1), carbamoyl-phosphate synthase 1 (CPS1), glucose-6-phosphatase (G6PC), hepatocyte nuclear factor 4 alpha (HNF4a), keratin type I cytoskeletal 18 (KRT18), […] (NAGS), ornithine transcarbamylase (OTC), and SOX9. Expression of cardiac-specific markers NKX2.5 and TNNT2 were used as a negative expression control.
In this study, forskolin treatment was included at days 21-35 of the 3D hepatocyte differentiation process outlined above, at days 30-35 of the 3D hepatocyte differentiation process outlined above, or days 28-35 of the 2D hepatocyte differentiation process outlined above. Gene expression of numerous hepatocyte and urea cycle markers was measured at different time points.

hepatocyte-like cells [3] = assay: ureagenesis after ammonia challenge (Urea Assay Kit); conditions: day 35, seven-day forskolin
Description: Human iPSCs were differentiated to hepatocyte-like cells essentially as described in […] et al., Nature Prot. 8(2):430-437 (2013) (Protocol A) or Blackford et al., Stem Cells Transl Med. 8(2):124-137 (2019) (Protocol B) with the following modifications: cells were maintained in the final medium until a total culture time of 35 days and HepatoZYME basal medium was substituted in Protocol B starting at day 8. Forskolin was added to the final medium at a concentration of […] on day 21 (Protocol A) or day 28 (Protocols A and B). Expression of hepatocyte and urea cycle genes was measured by qPCR and/or fluorescent Western blot analysis. Ureagenesis of the cells was assayed using Urea Assay Kit (BioChain). Ureagenesis activity was measured in day 35 cells from Protocol A and Protocol B following seven-day treatment with forskolin, following challenge of the hepatocyte-like cells with 0-16 mM ammonia. […] For Protocol A, ureagenesis activity peaked at stimulation with 5 mM ammonia treatment at about 20 nmol/min/10^6 cells, and levels were observed higher than those seen using primary human hepatocytes. For […], ureagenesis activity peaked at stimulation with 10 mM ammonia at a level similar to primary human hepatocytes, about 3 nmol/min/10^6 cells.

[4] = test system: hepatocyte maturation genes and urea cycle genes in hepatocyte-like cells; assay: Taqman qPCR gene expression, 3D differentiation protocol with or without forskolin; conditions: 10 μM forskolin days 28 to 35, vs untreated
Description: In the process, the pluripotent stem cells differentiate through different stages including a definitive endoderm stage, an anterior definitive endoderm stage, a foregut endoderm stage, a hepatic endoderm stage, an immature hepatocyte stage, and a mature hepatocyte stage. […] All pluripotent cell lines robustly differentiated in the endoderm lineage in the 3D format, with all cell lines achieving a target efficiency of 90% CXCR4 expressing cells. Gene expression analysis was performed on hepatocyte-like cells produced by either (i) a 3D differentiation protocol or (ii) a 3D differentiation protocol with the addition of 10 μM forskolin from days 28 to day 35. Duplicate RNA samples were isolated at selected time point of the differentiation and gene expression was analyzed by Taqman qPCR.

hepatocyte-like cells [5] = assay: urea production assay at day 35, 2D differentiation with forskolin; conditions: forskolin about 5 μM to about 10 μM after the first 26 days, read at day 35
Description: Mature hepatocyte-like cells were differentiated from human pluripotent stem cells using a 2D differentiation protocol for the first 26 days of differentiation, and then the immature hepatocyte-like cells were cultured in media containing forskolin (ranging from about 5 μM to about 10 μM). At day 35, the activity for the hepatocytes was determined using a urea production assay.

[6] = test system: hepatocyte and urea cycle genes in hepatocyte-like cells; assay: qPCR expression of hepatocyte and urea cycle genes in iPSC-derived hepatocyte-like cells (Protocols A and B)
Description: Human iPSCs were differentiated to hepatocyte-like cells essentially as described in […] et al., Nature Prot. 8(2):430-437 (2013) (Protocol A) or Blackford et al., Stem Cells Transl Med. 8(2):124-137 (2019) (Protocol B) with the following modifications: cells were maintained in the final medium until a total culture time of 35 days and HepatoZYME basal medium was substituted in Protocol B starting at day 8. Forskolin was added to the final medium at a concentration of […] on day 21 (Protocol A) or day 28 (Protocols A and B). Expression of hepatocyte and urea cycle genes was measured by qPCR and/or fluorescent Western blot analysis. Ureagenesis of the cells was assayed using Urea Assay Kit (BioChain).

## CC(C)=CCC/C(C)=C/CC/C(C)=C/CC/C(C)=C/CC1=C(C)C(=O)c2ccccc2C1=O [vitamin K2 MK4]
hPSC-Heps spheroids
  functional maturation status of the hepatocytes (urea synthesis): increased the functional maturation status

## CC(C)=CCC/C(C)=C/CC/C(C)=C/CC/C(C)=C/CC1=C(C)C(=O)c2ccccc2C1=O [vitamin K2]
hPSC-Heps spheroids
  ammonia detoxification: more effective at detoxifying ammonia
  ammonia detoxification with excess arginine: detoxified ammonia even faster

## HGF: recombinant hepatocyte growth factor in culture media
[1]
  hepatocyte maturation (CYP3A4 enzyme activity): enhanced hepatocyte maturation

## CC1=C(C/C=C(\C)CCC[C@H](C)CCC[C@H](C)CCCC(C)C)C(=O)c2ccccc2C1=O [vitamin K1]
hPSC-Heps spheroids
  functional maturation status of the hepatocytes (urea synthesis): increased the functional maturation status
  ammonia detoxification: more effective at detoxifying ammonia
  ammonia detoxification with excess arginine: detoxified ammonia even faster

## CC(C)=CCC/C(C)=C/CC/C(C)=C/CC/C(C)=C/CC/C(C)=C/CC/C(C)=C/CC/C(C)=C/CC1=C(C)C(=O)c2ccccc2C1=O [vitamin K2 MK7]
hPSC-Heps spheroids
  functional maturation status of the hepatocytes (urea synthesis): increased the functional maturation status

## C=C[C@@]1(C)CC(=O)[C@]2(O)[C@@]3(C)[C@@H](O)CCC(C)(C)[C@@H]3[C@H](O)[C@H](OC(C)=O)[C@@]2(C)O1 [forskolin]
[2]
  expression of hepatocyte-specific and urea cycle enzyme genes including ALB, ARG1, ASGR1, ASL, CPS1, G6PC, HNF4a and/or NAGS: increased expression
hepatocyte-like cells [3]; Protocol A, stimulation with 5 mM ammonia, higher than primary human hepatocytes
  peak ureagenesis activity: about 20 nmol/min/10^6 cells
hepatocyte-like cells [3]; printed Protocol A (second mention), stimulation with 10 mM ammonia, similar to primary human hepatocytes
  peak ureagenesis activity: about 3 nmol/min/10^6 cells
[4]
  expression of hepatocyte maturation genes and urea cycle genes: increases in expression
hepatocyte-like cells [5]
  ureagenesis activity of the differentiated mature hepatocyte: enhanced the ureagenesis activity
[6]; Protocol A, forskolin 10 mM at days 21-28, vs cells without forskolin, qPCR
  increase in urea cycle gene CPS1: 5-8 fold
[6]; Protocol A, forskolin 10 mM in medium at days 21-28, vs cells without forskolin, qPCR
  expression of hepatocyte-like cell genes (HNF4a, AFP, ALB, ASGR1): no significant effect
[6]; Protocol B, forskolin 10 mM at days 28-35, read at day 35, vs cells without forskolin
  enhancement of hepatocyte-like cell gene (HNF4a, ALB, ASGR1) expression: 2-4 fold
